# Test results as given in patent US20210238138A1, “Method for improving nucleation of crystals from solution” (Université Libre de Bruxelles, priority 2018, published 2021).
# Tests used:
# Assay type in all cases: physicochemical
# [1] = Solubility temperature and spontaneous nucleation temperature of aspirin solution; settings: 200 mg/mL in 50/50 vol % ethanol/water
# Text: The transition time is defined as the time necessary to reach crystallization conditions in the used setup (i.e. time for a fluid particle flowing in the liquid to get from undersaturated conditions to nucleation conditions). Therefore, this time is at a given concentration dominated by the difference in temperature between the solubility temperature and the metastable zone width or MSZW. At temperatures below this MSZW the solute in solution starts to nucleate spontaneously. […] (both measured). The transition time is then defined as the time needed to overcome this 20° C. difference in temperature.
# [2] = Cooling crystallisation of acetylsalicylic acid in ethanol/water in capillary tubing; settings: 200 mg/mL 50 vol % ethanol/water, residence time 5.3 s, initial 65° C., bath 10° C.
# Description: Tubing length should also be adapted when no antisolvent is added to the molecule/solvent solution.
# The crystallization temperature is controlled by a water bath containing about 5 L of water, temperature is monitored at all times by a thermocouple. This water is cooled by a 1 m long cupper serpentine plunged into the bath with cooling liquid flowing from and to a cryothermostat, the water bath itself is agitated with a magnetic bar stirrer. The internal volume of a 7 m long tubing of […] is about 22 mL. As this volume is 220 times smaller than the volume of the present water it is assumed that the water temperature remains within a 0.5° C. or smaller margin of the set temperature value.
# This reduction in size has to be performed in order to increase the reigning Reynolds number inside the restriction at set flow rates and concentrations.
# For example, in a series of tests, an identical total residence time inside the tubing of 5.3 s was respected. A solution of 200 mg/mL aspirin in 50 vol % ethanol/water was used; at different flow rates. This means that the total length of the tubing inside the water bath was varied according to the set flow rate in order to retain the 5.3 s residence time.
# [3] = Maturing of acetylsalicylic acid crystals (growth treatment, early filtration); settings: 3 m tubing
# [4] = test 45: 200 mg/mL ethanol/water 50/50 vol %, Tc 10° C., σ 6.7, 30 mL/min, no restrictions, Growth to equilibrium in tubing
# [5] = test 46: 200 mg/mL ethanol/water 50/50 vol %, Tc 10° C., σ 6.7, 30 mL/min, no restrictions, filtration on 16 μm glass filter after 60 s
# [6] = test 47: 200 mg/mL ethanol/water 50/50 vol %, Tc 10° C., σ 6.7, 30 mL/min, no restrictions, filtration on 16 μm glass filter after 90 s
# [7] = test 48: 200 mg/mL ethanol/water 50/50 vol %, Tc 10° C., σ 6.7, 30 mL/min, no restrictions, Addition to saturated solution
structure (smiles),measurement,setting,value
"CC(=O)Oc1ccccc1C(=O)O [Acetylsalicylic acid, acetylsalicylic acid]",Solubility temperature,[1],40 °C
same,Temperature at which spontaneous nucleation starts,[1],20 °C
same,Crystal length,"[2]; tubing ID 750 μm, flow rate 20 mL/min, tubing length 4.2 m",377 μm
same,Nucleation rate J,"[2]; tubing ID 750 μm, flow rate 30 mL/min, tubing length 6.2 m",170 000 mL^−1 · s−^1
same,Crystal length,"[2]; tubing ID 1000 μm, flow rate 30 mL/min, tubing length 3.6 m",495 μm
same,Crystal length,"[2]; tubing ID 1000 μm, flow rate 40 mL/min, tubing length 4.7 m",416 μm
same,Crystal length,[3]; [4],500 ± 230 μm
same,Crystal width,[3]; [4],69 ± 27 μm
same,Crystal length,[3]; [5],359 ± 190 μm
same,Crystal width,[3]; [5],66 ± 35 μm
same,Crystal length,[3]; [6],646 ± 391 μm
same,Crystal width,[3]; [6],38 ± 23 μm
same,Crystal length,[3]; [7],172 ± 66 μm
same,Crystal width,[3]; [7],38 ± 13 μm
same,Crystal length,"[3]; test 50: 200 mg/mL ethanol/water 50/50 vol %, Tc 15° C., σ 4.5, 30 mL/min, restriction 2 of 250 μm ID, filtration At exit",63 ± 36 μm
same,Sphere Equivalent Diameter,"[3]; test 51: 200 mg/mL ethanol/water 50/50 vol %, Tc 15° C., σ 4.5, 30 mL/min, restriction 2 of 250 μm ID, filtration After 120 s, thickness set to ⅕ of width",42 ± 11 μm
